Publication PMC4038613, “A New Class of Multimerization Selective Inhibitors of HIV-1 Integrase” (PLoS Pathogens, 2014)
Read-outs that look alike come from different tables or passages of the source.

What was measured:
IN-LEDGF/p75 [1] = target: T1, IN-LEDGF/p75 (Human immunodeficiency virus type 1 group M subtype B, UniProt P12497); parameters: method as in PMID 22437836; details: HTRF; read-out: IC50 for IN-LEDGF/75 binding; cited from earlier work
A128T IN HIV-1NL4-3 = experiment: A128T HIV-1 infectivity in TZM-bl cells; assay type: cell-based; details: particles produced in presence of inhibitor
HIV-1NL4-3 [2] = experiment: microbe, parasite or virus in culture; assay type: cell-based; details: for Selectivity Index, CC50/IC50: CC50 for cytotoxicity by IC50 for antiviral activity
HIV-1NL4-3 [3] = details: cited from earlier work
HIV-1 IN [4] = target: T2, HIV-1 IN (Human immunodeficiency virus type 1 group M subtype B, UniProt P12497); details: IC50 for inhibiting IN-LEDGF/p75 binding divided by EC50 for aberrant IN multimerization; fold
Procedure: (§1) HTRF-based IN multimerization and IN-LEDGF/p75 binding assays were carried out as described previously [33]. The HTRF signal was recorded using a Perkin Elmer Multimode EnSpire plate reader.

in vitro = assay type: cell-based
Procedure: The cytotoxcity assays were performed as described previously. The fitted dose-response curves were generated to calculate EC50 or CC50 using Origin software (OriginLab, Inc.).

HIV-1 IN [5] = target: T2, HIV-1 IN; parameters: DLS analysis of KF116-induced multimerization of recombinant IN; method as in PMID 22437836; details: HTRF; read-out: EC50 for aberrant IN multimerization; cited from earlier work
[6] = system: LEDGF/p75-dependent HIV-1 integration; experiment: HIV-1 integration site distribution (ligation-mediated PCR, 454-pyrosequencing); assay type: cell-based
HIV-1 [7] = system: HIV-1; parameters: method as in PMID 24040198; details: ref 41; read-out: IC50 in target cells; cited from earlier work
HIV-1 expression = assay type: cell-based; details: for inhibition of HIV-1 expression: target cells
[8] = system: VSV-G pseudotyped HIV-1-Luc in PSIP1 KO HEK293T cells; experiment: microbe, parasite or virus in culture; assay type: cell-based
HIV-1 [9] = experiment: Antiviral assay, late stage (inhibitor added to producer cells); assay type: cell-based; details: Human immunodeficiency virus 1, virions prepared in presence of inhibitor, untreated target cells; called IC50
Procedure: Results represent mean ± SD from three independent experiments.
For late stage experiments, the progeny virions were prepared in the presence of the indicated concentrations of the test inhibitor or diluent control (DMSO) and were then used to infect untreated target cells.

HIV-1 IN [10] = target: T2, HIV-1 IN; experiment: biochemical
Procedure: as §1

IN-LEDGF/p75 [11] = target: T1, IN-LEDGF/p75; experiment: HTRF-based IN-LEDGF/p75 binding assay; parameters: species or system HIV-1
Procedure: HTRF-based IN multimerization and IN-LEDGF/p75 binding assays were carried out as described previously [33].

[12] = system: VSV-G pseudotyped HIV-1-Luc; assay type: cell-based
[13] = target: the molecule itself; experiment: AlphaScreen or HTRF; HTRF-based IN multimerization assay in vitro, compound (KF115 or KF116) titrated; carried out as described in ref. 33
[14] = target: the molecule itself; experiment: cross-linking; concentrated, detergent-lysed virions (50 ng p24) from HEK293T cells treated with DMSO or 1 µM KF116; 50 µM BS3; SDS-PAGE and immunoblot with HIV-1 IN antibody
[15] = ref 33, 41, read-out: antiviral activity IC50
[16] = Target, 5 µM, *** P<0.001 vs DMSO
[17] = target cells, 10 µM, *** P<0.001 vs DMSO

Molecule: COC(C(=O)O)c1c(C)nc2ccc(Br)cc2c1-c1ccc(Cl)cc1 (stereo not drawn) [BI-1001, reference compound]
- IC50 (IN-LEDGF/p75 [1]): 1000 ± 100 nM
- A128T IN HIV-1NL4-3 replication in infected cells (A128T IN HIV-1NL4-3): marked resistance
- Selectivity Index, CC50/IC50 (HIV-1NL4-3 [2]): >17
- IC50 (HIV-1NL4-3 [3]; [15]): ~5800 nM
- IC50 (HIV-1NL4-3 [3]; ref 33, read-out: Antiviral activity (IC50)): 5800 ± 100 nM
- Selectivity ratio, IC50 IN-LEDGF/EC50 aberrant IN multimerization (HIV-1 IN [4]): 0.2
- CC50 (in vitro): > 100000 nM
- EC50 (HIV-1 IN [5]): 4900 ± 300 nM

Molecule: Cc1nc2ccccc2c(-c2cc(F)c3c(c2C)CCCO3)c1[C@H](OC(C)(C)C)C(=O)O [GS-B, reference compound]
- % in RefSeq (HIV-1 integration frequency) ([6]; Producer, 100 nM): 84.00%
- % in known genes (HIV-1 integration frequency) ([6]; Producer, 100 nM): 85.71%
- % in RefSeq (HIV-1 integration frequency) [6, 16]: 73.83%
- % in known genes (HIV-1 integration frequency) [6, 16]: 75.74%
- % in RefSeq (HIV-1 integration frequency) [6, 17]: 74.76%
- % in known genes (HIV-1 integration frequency) [6, 17]: 77.39%
- IC50 (HIV-1 [7]): ~700 nM
- inhibition of HIV-1 expression (HIV-1 expression; 5 µM): ~71%
- inhibition of HIV-1 expression (HIV-1 expression; 10 µM): ~88%
- reduction in target cell HIV-1 expression (HIV-1 expression; virus-producer cells treated with 0.1 µM): ~77%
- effect of complete loss of LEDGF/p75 protein in virus-producer cells on IC50 values [8]: did not alter
- IC50 (HIV-1NL4-3 [3]; [15]): ~26 nM
- EC50 (HIV-1NL4-3 [3]; same value given in b14 with ref 33, 41, read-out: EC50 for full replication cycle): ~26 nM
- EC50 (HIV-1 [9]): 39 nM

Molecule: Cc1ccc(-c2nc(C)c(C(OC(C)(C)C)C(=O)O)c(-c3ccc(Cl)cc3)c2C)cc1C (stereo not drawn) [KF115]
- EC50 (HIV-1 IN [10]): 274 ± 25 nM
- Selectivity Index, CC50/IC50 (HIV-1NL4-3 [2]): >826
- IC50 (HIV-1NL4-3 [2]; Human immunodeficiency virus 1, read-out: Antiviral activity (IC50), HIV-1NL4-3, full replication cycle): ~121 nM
- Selectivity ratio, IC50 IN-LEDGF/EC50 aberrant IN multimerization (HIV-1 IN [4]): 47.4
- CC50 (in vitro): > 100000 nM
- IC50 (IN-LEDGF/p75 [11]): 13000 ± 1500 nM

Molecule: Cc1nnc(C(=O)NC(C)(C)c2nc(C(=O)NCc3ccc(F)cc3)c(O)c(=O)n2C)o1 [RAL, Raltegravir, reference compound]
- effect on replication intermediates in target cells of virions produced in presence of inhibitor [12]: no inhibitory effects
- effect on replication intermediates when inhibitor added to target cells [12]: selectively inhibited the integration step and increased the levels of 2-LTRs

B1: HIV-1 integrase (recombinant IN) (enzyme)
chain: FLDGIDKAQEEHEKYHSNWRAMASDFNLPPVVAKEIVASCDKCQLKGEAMHGQVDCSPGIWQLDCTHLEGKVILVAVHVASGYIEAEVIPAETGQETAYFLLKLAGRWPVKTVHTDNGSNFTSTTVKAACWWAGIKQEFGIPYNPQSQGVIESMNKELKKIIGQVRDQAEHLKTAVQMAVFIHNFKRKGGIGGYSAGERIVDIIATDIQTKELQKQITKIQNFRVYYRDSRDPVWKGPAKLLWKGEGAVVIQDNSDIKVVPRRKAKIIRDYGKQMAGDDCVASRQDED
notes: also called WT IN; source: recombinant
- EC50 of KF115 for aberrant IN multimerization (with KF115) [13]: 274 nM
- EC50 of KF116 for aberrant IN multimerization (with KF116) [13]: 86 nM

B2: HIV-1 integrase in virus particles (enzyme)
chain: B1 chain
notes: also called virion-associated IN
- stoichiometry N [14]: 2
